Test results published in ChEMBL document CHEMBL1122681, “(Acylaryloxy)acetic acid diuretics. 5. [(2-Alkyl- and 2,2-disubstituted-1,3-dioxo-5-indanyl)oxy]acetic acids” (J Med Chem, 1984).

Legend:
[1] = test system: Canis familiaris; assay: Compound was evaluated for diuretic activity, in female mongrel dogs by measuring volume of urine, after iv administration of 5 mg/kg (control/compound treatment results) Control = 1; assay type: ADME, organism-based, Canis lupus familiaris; parameters: dose 5 mg/kg, route intravenous; details: dog, in vivo
[2] = test system: Canis familiaris; assay: Compound was evaluated for diuretic activity, in female mongrel dogs by measuring amount of Na+ in urine after iv administration of 5 mg/kg (control/compound treatment results) Control = 22; assay type: functional, Canis lupus familiaris
[3] = test system: Pan troglodytes; assay: Compound was evaluated for diuretic activity in chimpanzee measured as increase in the number of microequivalents of Cl- electrolyte/min at 5 mg/kg; assay type: functional, Urine
[4] = test system: Pan troglodytes; assay: Compound was evaluated for diuretic activity in chimpanzee measured as increase in volume of urine at 5 mg/kg; assay type: functional
[5] = test system: Canis familiaris; assay: Compound was evaluated for diuretic activity, in female mongrel dogs by measuring amount of Cl- in urine after iv administration of 5 mg/kg (control/compound treatment results) Control = 4; assay type: functional, Canis lupus familiaris
[6] = test system: Pan troglodytes; assay: Compound was evaluated for diuretic activity in chimpanzee measured as clearance of […] and urate after intravenous administration of 1.25 mg/kg; assay type: functional, Urine
[7] = test system: Pan troglodytes; assay: Compound was evaluated for diuretic activity in chimpanzee measured as increase in the number of microequivalents of Na+ /min at 1.25 mg/kg; assay type: functional, Urine
[8] = test system: Pan troglodytes; assay: Compound was evaluated for diuretic activity in chimpanzee measured as increase in the number of microequivalents of K+ /min at 5 mg/kg; assay type: functional, Urine
[9] = test system: Canis familiaris; assay: Compound was evaluated for diuretic activity, in female mongrel dogs by measuring amount of K+ in urine after iv administration of 5 mg/kg (control/compound treatment results) Control = 10; assay type: functional, Canis lupus familiaris
[10] = test system: Pan troglodytes; assay: Compound was evaluated for diuretic activity in chimpanzee measured as increase in the number of microequivalents of K+ /min at 1.25 mg/kg; assay type: functional, Urine
[11] = test system: Pan troglodytes; assay: Compound was evaluated for diuretic activity in chimpanzee measured as increase in volume of urine at 1.25 mg/kg; assay type: functional
[12] = test system: Pan troglodytes; assay: Compound was evaluated for diuretic activity in chimpanzee measured as increase in the number of microequivalents of Cl- electrolyte/min at 1.25 mg/kg; assay type: functional, Urine
[13] = test system: Pan troglodytes; assay: Compound was evaluated for diuretic activity in chimpanzee measured as clearance of […] and urate after peroral administration of 5 mg/kg; assay type: functional, Urine; details: route oral
[14] = test system: Pan troglodytes; assay: Compound was evaluated for diuretic activity in chimpanzee measured as increase in the number of microequivalents of Na+ /min at 5 mg/kg; assay type: functional, Urine
[15] = test system: Canis familiaris; assay: Compound was evaluated for diuretic activity, in female mongrel dogs by measuring volume of urine, after iv administration of 5 mg/kg (control/compound treatment results) Control = 2; assay type: ADME, organism-based, Canis lupus familiaris; parameters: dose 5 mg/kg, route intravenous; details: dog, in vivo
[16] = test system: Pan troglodytes; assay: Compound was evaluated for diuretic activity in chimpanzee measured as increase in the number of microequivalents of Cl- electrolyte/min at 1 mg/kg; assay type: functional, Urine
[17] = test system: Rattus norvegicus; assay: Compound was evaluated for diuretic activity administered orally in female rats measured as milliequivalents of Na+x 100 / cage at 3 mg/kg; assay type: functional, Urine; details: route oral
[18] = test system: Canis familiaris; assay: Compound was evaluated for diuretic activity, administered orally in female mongrel dogs (5 mg/kg) measured as milliequivalents of Cl-; assay type: functional, Canis lupus familiaris, Urine
[19] = test system: Pan troglodytes; assay: Compound was evaluated for diuretic activity in chimpanzee measured as increase in volume of urine at 1 mg/kg; assay type: functional
[20] = test system: Canis familiaris; assay: Compound was evaluated for diuretic activity, administered orally in female mongrel dogs (5 mg/kg) measured as milliequivalents of K; assay type: functional, Canis lupus familiaris, Urine
[21] = test system: Pan troglodytes; assay: Compound was evaluated for diuretic activity in chimpanzee measured as increase in the number of microequivalents of K+ /min at 1 mg/kg; assay type: functional, Urine
[22] = species on record: Canis familiaris; assay: (§1) Volume of urine in dog; assay type: ADME, organism-based, Canis lupus familiaris; details: in vivo
[23] = test system: Canis familiaris; assay: Compound was evaluated for diuretic activity, in female mongrel dogs by measuring amount of K+ in urine after iv administration of 5 mg/kg (control/compound treatment results) Control = 5; assay type: functional, Canis lupus familiaris
[24] = test system: Rattus norvegicus; assay: Compound was evaluated for diuretic activity administered orally in female rats measured as milliequivalents of Na+x 100 / cage at 27 mg/kg; assay type: functional, Urine; details: route oral
[25] = test system: Pan troglodytes; assay: Compound was evaluated for diuretic activity in chimpanzee measured as increase in the number of microequivalents of Na+ /min at 1 mg/kg; assay type: functional, Urine
[26] = test system: Canis familiaris; assay: Compound was evaluated for diuretic activity, administered orally in female mongrel dogs (5 mg/kg) measured as milliequivalents of Na; assay type: functional, Canis lupus familiaris, Urine
[27] = test system: Rattus norvegicus; assay: Compound was evaluated for diuretic activity administered orally in female rats measured as milliequivalents of Cl-x 100 / cage at 81 mg/kg; assay type: functional, Urine; details: route oral
[28] = test system: Rattus norvegicus; assay: Compound was evaluated for diuretic activity administered orally in female rats measured as milliequivalents of Cl-x 100 / cage at 9 mg/kg; assay type: functional, Urine; details: route oral
[29] = test system: Rattus norvegicus; assay: Compound was evaluated for diuretic activity administered orally in female rats measured as milliequivalents of Na+x 100 / cage at 9 mg/kg; assay type: functional, Urine; details: route oral
[30] = test system: Rattus norvegicus; assay: Compound was evaluated for diuretic activity administered orally in female rats measured as milliequivalents of K+x 100 / cage at 9 mg/kg; assay type: functional, Urine; details: route oral
[31] = test system: Rattus norvegicus; assay: Compound was evaluated for diuretic activity administered orally in female rats measured as milliequivalents of K+x 100 / cage at 81 mg/kg; assay type: functional, Urine; details: route oral
[32] = test system: Canis familiaris; assay: Compound was evaluated for diuretic activity, in female mongrel dogs by measuring amount of Cl- in urine after iv administration of 5 mg/kg (control/compound treatment results) Control = 9; assay type: functional, Canis lupus familiaris
[33] = test system: Rattus norvegicus; assay: Compound was evaluated for diuretic activity administered orally in female rats measured as milliequivalents of Na+x 100 / cage at 81 mg/kg; assay type: functional, Urine; details: route oral
[34] = test system: Pan troglodytes; assay: Compound was evaluated for diuretic activity in chimpanzee measured as clearance of […] and urate after intra venous administration of 1 mg/kg; assay type: functional, Urine
[35] = test system: Rattus norvegicus; assay: Compound was evaluated for diuretic activity administered orally in female rats measured as milliequivalents of K+x 100 / cage at 27 mg/kg; assay type: functional, Urine; details: route oral
[36] = test system: Rattus norvegicus; assay: Compound was evaluated for diuretic activity administered orally in female rats measured as milliequivalents of K+x 100 / cage at 3 mg/kg; assay type: functional, Urine; details: route oral
[37] = Volume of urine at 3 mg/kg; assay type: ADME, organism-based; parameters: dose 3 mg/kg; details: in vivo
[38] = Volume of urine at 27 mg/kg; assay type: ADME, organism-based; parameters: dose 27 mg/kg; details: in vivo
[39] = test system: Rattus norvegicus; assay: Compound was evaluated for diuretic activity administered orally in female rats measured as milliequivalents of Cl-x 100 / cage at 3 mg/kg; assay type: functional, Urine; details: route oral
[40] = Volume of urine at 81 mg/kg; assay type: ADME, organism-based; parameters: dose 81 mg/kg; details: in vivo
[41] = Volume of urine at 9 mg/kg; assay type: ADME, organism-based; parameters: dose 9 mg/kg; details: in vivo
[42] = test system: Rattus norvegicus; assay: Compound was evaluated for diuretic activity administered orally in female rats measured as milliequivalents of Cl-+x 100 / cage at 27 mg/kg; assay type: functional, Urine; details: route oral
[43] = test system: Canis familiaris; assay: Compound was evaluated for diuretic activity, in female mongrel dogs by measuring amount of Na+ in urine after iv administration of 5 mg/kg (control/compound treatment results) Control = 24; assay type: functional, Canis lupus familiaris
[44] = test system: Canis familiaris; assay: Compound was evaluated for diuretic activity, in female mongrel dogs by measuring amount of Na+ in urine after iv administration of 5 mg/kg (control/compound treatment results) Control = 59; assay type: functional, Canis lupus familiaris
[45] = volume of urine at 9 mg/kg; assay type: ADME, organism-based; parameters: dose 9 mg/kg; details: in vivo
[46] = volume of urine at 3 mg/kg; assay type: ADME, organism-based; parameters: dose 3 mg/kg; details: in vivo
[47] = test system: Pan troglodytes; assay: Compound was evaluated for diuretic activity in chimpanzee measured as increase in the number of microequivalents of K+ /min at 1.5 mg/kg; assay type: functional, Urine
[48] = volume of urine at 27 mg/kg; assay type: ADME, organism-based; parameters: dose 27 mg/kg; details: in vivo
[49] = test system: Canis familiaris; assay: Compound was evaluated for diuretic activity, in female mongrel dogs by measuring amount of K+ in urine after iv administration of 5 mg/kg (control/compound treatment results) Control = 13; assay type: functional, Canis lupus familiaris
[50] = volume of urine at 81 mg/kg; assay type: ADME, organism-based; parameters: dose 81 mg/kg; details: in vivo
[51] = species on record: Canis familiaris; assay: as §1; assay type: functional, Canis lupus familiaris
[52] = test system: Pan troglodytes; assay: Compound was evaluated for diuretic activity in chimpanzee measured as increase in the number of microequivalents of Na+ /min at 1 0.5 mg/kg; assay type: functional, Urine
[53] = test system: Pan troglodytes; assay: Compound was evaluated for diuretic activity in chimpanzee measured as clearance of […] and urate after intra venous administration of.1 5 mg/kg.; assay type: functional, Urine
[54] = test system: Pan troglodytes; assay: Compound was evaluated for diuretic activity in chimpanzee measured as increase in the number of microequivalents of Cl- electrolyte/min at 1.5 mg/kg; assay type: functional, Urine
[55] = test system: Canis familiaris; assay: Compound was evaluated for diuretic activity, in female mongrel dogs by measuring amount of Cl- in urine after iv administration of 5 mg/kg (control/compound treatment results) Control = 5; assay type: functional, Canis lupus familiaris

Row | SMILES | Increase [3] | Increase in volume [4] [mL/min] | Increase [8] | Delta C urate / delta C insulin [13] | Increase [14] | Urine volume [15] [mL/min] | Activity [17] | Activity [18] | Increase in volume [19] [mL/min] | Activity [20] | Activity [24] | Activity [26] | Activity [27] | Activity [28] | Activity [29] | Activity [30] | Activity [31] | Activity [33] | Activity [35] | Activity [36] | also measured
1 | CCC1(CC)C(=O)c2cc(OCC(=O)O)c(C)c(C)c2C1=O | 120 | 0.6 | 32 | 0.045 | 103 |  |  |  |  |  |  |  |  |  |  |  |  |  |  |  | Urine volume [1]: 2 mL/min; Activity [2]: 106 u equiv min-1; Activity [5]: 42 u equiv min-1; Delta C urate / delta C insulin [6]: 0.258; Increase [7]: 243; Activity [9]: 21 u equiv min-1; Increase [10]: 46; Increase in volume [11]: 2.2 mL/min; Increase [12]: 288
2 | Cc1c(OCC(=O)O)cc2c(c1Cl)C(=O)C1(CCCC1)C2=O [(ACYLARYLOXY)ACETIC ACID] | 211 | -0.5 | 39 | 0.053 | 170 | 5 | 14 | 3 | 1.1 | 1 | 35 | 2 | 61 | 15 | 26 | 30 | 29 | 47 | 32 | 23 | Increase [16]: 117; Increase [21]: 37; Urine volume [22]: 253 mL; Activity [23]: 23 u equiv min-1; Increase [25]: 59; Activity [32]: 245 u equiv min-1; Delta C urate / delta C insulin [34]: 0.088; Urine volume [37]: 29 mL; Urine volume [38]: 33 mL; Activity [39]: 10; Urine volume [40]: 29 mL; Urine volume [41]: 29 mL; Activity [42]: 30; Activity [43]: 305 u equiv min-1
3 | NS(=O)(=O)c1cc2c(cc1Cl)NCNS2(=O)=O [HYDROCHLOROTHIAZIDE] | 198 | 1 | 93 | -0.015 | 144 | 3 | 127 | 7 | 1.8 | 18 | 168 | 50 | 163 | 143 | 133 | 33 | 61 | 154 | 61 | 50 | Activity [44]: 193 u equiv min-1; Urine volume [45]: 30 mL; Urine volume [46]: 37 mL; Increase [47]: 25; Urine volume [48]: 32 mL; Activity [49]: 27 u equiv min-1; Urine volume [50]: 33 mL; Volume of urine [51]: 25; Increase [52]: 275; Delta C urate / delta C insulin [53]: 0.01; Activity [39]: 146; Increase [54]: 187; Activity [42]: 191; Activity [55]: 11 u equiv min-1
